Residues, ends and D or L forms follow the SMILES beside them. A value given as a limit tells only on which side of the number the result lay.

From patent publication US8691949B2, “Peptide having anti-diabetic activity and use thereof” (MG Pharma Inc., priority 2008, dated 2014) come the findings set out here.

This series in a line: in vivo. To be noted: mouse, po, 2 g/kg body weight.

`CC(C)C[C@H](NC(=O)[C@H](CCC(=O)O)NC(=O)[C@H](CO)NC(=O)[C@@H](N)CC(C)C)C(=O)O` [LSEL, Leu-Ser-Glu-Leu] (H-LSEL-OH) gave an LD50 of more than 2000 mg/kg.
